Source: patent US5739294A, “Bicyclopol yazamacrocyclophosphonic acid complexes for use as contrast agents” (priority 1994, dated 1998)

Legend:
[1] = biodistribution, percent of injected dose in tissues of rats; type: in vivo, Sprague Dawley rats; conditions: rat, tail vein; for % injected dose, Blood: blood assumed 7% of body weight; for % injected dose, Muscle: muscle assumed 43% of body weight; for % injected dose, Bone: percent dose in femur × 25
Method: Sprague Dawley rats were allowed to acclimate for five days then injected with 100 μL of the complex solution via a tail vein. The rats weighed between 150 and 200 g at the time of injection. […] The amount of radioactivity in each tissue was determined by counting in a NaI scintillation counter coupled to a multichannel analyzer. The counts were compared to the counts in 100 μL standards in order to determine the percentage of the dose in each tissue or organ.
The percent dose in blood was estimated assuming blood to be 7% of the body weight. The percent dose in bone was estimated by multiplying the percent dose in the femur by 25. The percent dose in muscle was estimated assuming muscle to be 43% of the body weight. […]

[2] = in vivo; cited from earlier work
[3] = percent metal as a complex (Sephadex column, ^153 Sm tracer); type: physicochemical; conditions: 1:1 ligand/metal, SmCl3 3×10^-4 M in 0.01N HCl
Method: A stock ^159 GdCl3 (or ^153 SmCl3) solution was prepared by adding 2 μL of 3×10^-4 M ^159 GdCl3 in 0.1N HCl to 2 mL of a 3×10^-4 M GdCl3 carrier solution. Appropriate ligand solutions were then prepared in deionized water. The 1:1 ligand/metal complexes were then prepared by combining the ligands (dissolved in 100-500 μL of deionized water) with 2 mL of the stock ^159 GdCl3 solution, followed by through mixing to give an acidic solution (pH=2). The pH of the solution was then raised to 7.0 using 0.1N NaOH. The percent metal as a complex was then determined by passing a sample of the complex solution through a Sephadex™ G-50 column, eluting with 4:1 saline ([…]) and collecting 2×3 mL fractions. The amount of radioactivity in the combined elutions was then compared with that left on the resin (non-complexed metal is retained on the resin). […]
A solution of the ligand of Example 1 was prepared by dissolving 3.8 mg of ligand/0.517 mL of deionized water (pH=2). […] After thorough mixing, the percent metal as a complex was determined by passing a sample of the complex solution through a Sephadex™ column, eluting with 4:1 saline (0.85% NaCl/NH4 OH), and collecting 2×3 mL fractions. The amount of radioactivity in the combined elutions was then compared with that left on the resin. […] By this method complexation was determined to be 98%. […]

[4] = compared with Magnevist; cited from earlier work
[5] = MRI imaging experiments in rats; type: in vivo, Sprague Dawley rat; conditions: rat, intramuscular, 0.05-0.1 mmol Gd/kg
Method: Injectable solutions were first prepared (0.5M) by dissolving the appropriate amount of each complex in 2 mL of deionized water. The pH of the solutions were then adjusted to 7.4 using 1M HCl or NaOH as needed. The total Gd content of each solution was then determined by ICP analysis.
An anesthetized Sprague Dawley rat was injected intramuscularly with one of the metal solutions described above at a dose of 0.05-0.1 mmol Gd/kg body weight. Images were then taken at various time intervals and compared with a non-injected control at time 0.

## CCCOP(=O)([O-])CN1CCN(CP(=O)([O-])OCCC)Cc2cccc(n2)CN(CP(=O)([O-])OCCC)CC1.[153Sm+3] [^153 Sm-PMPHE]
[1]; 2 hours post injection
  % injected dose, Brain: 0.00%
  % injected dose, Heart: 0.08%
  % injected dose, Kidney: 1.55%
  % injected dose, Large Intestine: 2.17%
  % injected dose, Liver: 4.14%
  % injected dose, Lung: 0.12%
  % injected dose, Small Intestine: 10.71%
  % injected dose, Spleen: 0.05%
  % injected dose, Stomach: 0.44%
  % injected dose, Blood: 0.25%
  % injected dose, Muscle: 1.19%
  % injected dose, Bone: 10.86%

## O=C(O)CN1CCN(CP(=O)(O)O)CCN(CC(=O)O)Cc2cccc(n2)C1.[153Sm] [^153 Sm-PC2A1P]
[1]; 2 hours post injection
  % injected dose, Brain: 0.01%
  % injected dose, Heart: 0.04%
  % injected dose, Kidney: 0.93%
  % injected dose, Large Intestine: 0.12%
  % injected dose, Liver: 1.46%
  % injected dose, Lung: 0.06%
  % injected dose, Small Intestine: 13.10%
  % injected dose, Spleen: 0.02%
  % injected dose, Stomach: 0.25%
  % injected dose, Blood: 0.36%
  % injected dose, Muscle: 1.00%
  % injected dose, Bone: 47.98%

## CNC[C@H](O)[C@@H](O)[C@H](O)[C@H](O)CO.CNC[C@H](O)[C@@H](O)[C@H](O)[C@H](O)CO.O=C([O-])CN(CCN(CC(=O)[O-])CC(=O)O)CCN(CC(=O)[O-])CC(=O)O.[Gd+3] [MAGNEVIST, complex of gadolinium with diethylenetriaminepentaacetic acid]
[2]
  distribution: freely distributes in extracellular fluid
  elimination: efficient elimination through the renal system

## CCCCOP(=O)([O-])CN1CCN(CP(=O)([O-])OCCCC)Cc2cccc(n2)CN(CP(=O)([O-])OCCCC)CC1.[153Sm+3] [^153 Sm-PMBHE]
[1]; 2 hours post injection
  % injected dose, Brain: 0.00%
  % injected dose, Heart: 0.02%
  % injected dose, Kidney: 0.43%
  % injected dose, Large Intestine: 0.77%
  % injected dose, Liver: 2.70%
  % injected dose, Lung: 0.04%
  % injected dose, Small Intestine: 57.89%
  % injected dose, Spleen: 0.05%
  % injected dose, Stomach: 0.08%
  % injected dose, Blood: 0.14%
  % injected dose, Muscle: 1.09%
  % injected dose, Bone: 3.73%

## ^153 Sm-3,6,9,15-tetraazabicyclo[9.3.1]pentadeca-1(15),11,13-triene-3,6,9-trimethylenephosphonic acid [^153 Sm-PCTMP]
[1]; 30 min (general procedure)
  % injected dose, Kidney: 1.42%
  % injected dose, Liver: 0.99%
  % injected dose, Spleen: 0.07%
  % injected dose, Blood: 6.27%
  % injected dose, Muscle: 4.77%
  % injected dose, Bone: 34.87%
[3]
  complexation (percent metal as a complex): 98%

## CC(O)CN1CCN(CC(=O)[O-])CCN(CC(=O)[O-])CCN(CC(=O)[O-])CC1.[Gd+3] (centres unmarked) [PROHANCE, [1,4,7-tris(carboxymethyl)-10-(2-hydroxypropyl)-1,4,7,10-tetraazacyclododecanato]-gadolinium]
[2]
  distribution: freely distributes in extracellular fluid
  elimination: efficient elimination through the renal system
[4]
  side effects: fewer side effects than Magnevist

## O=P(O)(O)CN1CCN(CP(=O)(O)O)Cc2cccc(n2)CN(CP(=O)(O)O)CC1.[Gd] [Gd-PCTMP]
[5]
  MR image enhancement, kidney: kidney enhancement
  bone localization in MR image: bone localization in the shoulder, spine and sternum
